Source: patent US8242109B2, “Compositions and methods relating to novel compounds and targets thereof” (priority 2007, dated 2012)
pEC50, pIC50: −log10 of the molar value. Read-outs that look alike come from different tables or passages of the source.

What was measured:
Ramos cells = assay: Cytotoxicity in Ramos cells; type: cell-based; conditions: Homo sapiens, read-out: Ramos Cell EC50
Description: (§1) The compounds listed in Table 4 were tested for activity against F1F0-ATPase and cytotoxicity in Ramos cells. Inhibition of ATP synthesis and hydrolysis by the F1F0-ATPase was measured as described in K. M. Johnson et al., Chemistry & Biology 2005, 12, 485-496. Cytotoxicity in Ramos cells was measured as described in K. M. Johnson et al., Chemistry & Biology 2005, 12, 485-496, or using the alamarBlue™ Assay with fluorescence detection (U.S. Pat. No. 5,501,959) as supplied and described by Invitrogen (Carlsbad, Calif.).

F1F0-ATPase = target: T1, F1F0-ATPase (Bos taurus, UniProt P13621); assay: Inhibition of ATP synthesis and hydrolysis by the F1F0-ATPase; type: biochemical
T1 construct: from tissue; host or cells: bovine sub-mitochondrial particles (SMPs)
Description: as §1

Row | SMILES | pEC50 (Ramos cells; cytotoxicity in Ramos cells) | pIC50 (F1F0-ATPase) | pEC50 (Ramos cells; Ramos)
1 | CCc1ccccc1CC1N=C(c2ccc(O)cc2)c2cc(Cl)ccc2NC1=O (stereo not drawn) [Compound 23, (Z)-7-chloro-3-(2-ethylbenzyl)-5-(4-hydroxyphenyl)-1H-benzo[e][1,4]diazepin-2(3H)-one] | 5.00 to 5.30 | 5.00 to 5.30 | –
2 | CCc1ccccc1CC1N=C(c2ccc(O)cc2)c2cc(Cl)ccc2N(C)C1=O (stereo not drawn) [Compound 24, (Z)-7-chloro-3-(2-ethylbenzyl)-5-(4-hydroxyphenyl)-1-methyl-1H-benzo[e][1,4]diazepin-2(3H)-one] | < 5.00 | 5.00 to 5.30 | –
3 | CCc1cccc(CC2N=C(c3ccc(O)cc3)c3cc(Cl)ccc3NC2=O)c1 (stereo not drawn) [Compound 25, (Z)-7-chloro-3-(3-ethylbenzyl)-5-(4-hydroxyphenyl)-1H-benzo[e][1,4]diazepin-2(3H)-one] | 5.00 to 5.30 | 5.00 to 5.30 | –
4 | CCc1cccc(CC2N=C(c3ccc(O)cc3)c3cc(Cl)ccc3N(C)C2=O)c1 (stereo not drawn) [Compound 26, (Z)-7-chloro-3-(3-ethylbenzyl)-5-(4-hydroxyphenyl)-1-methyl-1H-benzo[e][1,4]diazepin-2(3H)-one] | 5.00 to 5.30 | 5.00 to 5.30 | –
5 | CCc1ccc(CC2N=C(c3ccc(O)cc3)c3cc(Cl)ccc3N(C)C2=O)cc1 (stereo not drawn) [Compound 27, (Z)-7-chloro-3-(4-ethylbenzyl)-5-(4-hydroxyphenyl)-1-methyl-1H-benzo[e][1,4]diazepin-2(3H)-one] | 5.00 to 5.30 | 5.00 to 5.30 | –
6 | CCc1ccc(CC2N=C(c3ccc(O)cc3)c3cc(Cl)ccc3NC2=O)cc1 (stereo not drawn) [Compound 28, (Z)-7-chloro-3-(4-ethylbenzyl)-5-(4-hydroxyphenyl)-1H-benzo[e][1,4]diazepin-2(3H)-one] | 5.00 to 5.30 | 5.00 to 5.30 | –
7 | CC(C)c1cccc(CC2N=C(c3ccc(O)cc3)c3cc(Cl)ccc3N(C)C2=O)c1 (stereo not drawn) [Compound 29, (Z)-7-chloro-5-(4-hydroxyphenyl)-3-(3-isopropylbenzyl)-1-methyl-1H-benzo[e][1,4]diazepin-2(3H)-one] | 5.00 to 5.30 | 5.00 to 5.30 | –
8 | CC(C)c1ccc(CC2N=C(c3ccc(O)cc3)c3cc(Cl)ccc3NC2=O)cc1 (stereo not drawn) [Compound 30, (Z)-7-chloro-5-(4-hydroxyphenyl)-3-(4-isopropylbenzyl)-1H-benzo[e][1,4]diazepin-2(3H)-one] | 5.00 to 5.30 | 5.00 to 5.30 | –
9 | CC(C)c1ccc(CC2N=C(c3ccc(O)cc3)c3cc(Cl)ccc3N(C)C2=O)cc1 (stereo not drawn) [Compound 31, (Z)-7-chloro-5-(4-hydroxyphenyl)-3-(4-isopropylbenzyl)-1-methyl-1H-benzo[e][1,4]diazepin-2(3H)-one] | 5.00 to 5.30 | 5.00 to 5.30 | –
10 | CN1C(=O)C(Cc2ccccc2C(F)(F)F)N=C(c2ccc(O)cc2)c2cc(Cl)ccc21 (stereo not drawn) [Compound 32, (Z)-7-chloro-5-(4-hydroxyphenyl)-1-methyl-3-(2-(trifluoromethyl)benzyl)-1H-benzo[e][1,4]diazepin-2(3H)-one] | 5.00 to 5.30 | 5.00 to 5.30 | –
11 | O=C1Nc2ccc(Cl)cc2C(c2ccc(O)cc2)=NC1Cc1ccccc1Br (stereo not drawn) [Compound 33, (Z)-3-(2-bromobenzyl)-7-chloro-5-(4-hydroxyphenyl)-1H-benzo[e][1,4]diazepin-2(3H)-one] | – | 5.00 to 5.30 | > 5.30
12 | CN1C(=O)C(Cc2ccccc2Cl)N=C(c2ccc(O)cc2)c2cc(Cl)ccc21 (stereo not drawn) [Compound 34, (Z)-7-chloro-3-(2-chlorobenzyl)-5-(4-hydroxyphenyl)-1-methyl-1H-benzo[e][1,4]diazepin-2(3H)-one] | 5.00 to 5.30 | > 5.30 | –
13 | CN1C(=O)C(Cc2ccc(C(F)(F)F)cc2)N=C(c2ccc(O)cc2)c2cc(Cl)ccc21 (stereo not drawn) [Compound 36, (Z)-7-chloro-5-(4-hydroxyphenyl)-1-methyl-3-(4-(trifluoromethyl)benzyl)-1H-benzo[e][1,4]diazepin-2(3H)-one] | 5.00 to 5.30 | > 5.30 | –
14 | CN1C(=O)C(Cc2cccc(Br)c2)N=C(c2ccc(O)cc2)c2cc(Cl)ccc21 (stereo not drawn) [Compound 37, (Z)-3-(3-bromobenzyl)-7-chloro-5-(4-hydroxyphenyl)-1-methyl-1H-benzo[e][1,4]diazepin-2(3H)-one] | 5.00 to 5.30 | > 5.30 | –
15 | CN1C(=O)C(Cc2ccc(Br)cc2)N=C(c2ccc(O)cc2)c2cc(Cl)ccc21 (stereo not drawn) [Compound 38, (Z)-3-(4-bromobenzyl)-7-chloro-5-(4-hydroxyphenyl)-1-methyl-1H-benzo[e][1,4]diazepin-2(3H)-one] | 5.00 to 5.30 | > 5.30 | –
16 | CN1C(=O)C(Cc2cccc(Cl)c2)N=C(c2ccc(O)cc2)c2cc(Cl)ccc21 (stereo not drawn) [Compound 39, (Z)-7-chloro-3-(3-chlorobenzyl)-5-(4-hydroxyphenyl)-1-methyl-1H-benzo[e][1,4]diazepin-2(3H)-one] | < 5.00 | < 5.00 | –
17 | O=C1Nc2ccc(Cl)cc2C(c2ccc(O)cc2)=NC1Cc1ccccc1Cl (stereo not drawn) [Compound 40, (Z)-7-chloro-3-(2-chlorobenzyl)-5-(4-hydroxyphenyl)-1H-benzo[e][1,4]diazepin-2(3H)-onc] | – | > 5.30 | 5.00 to 5.30
18 | O=C1Nc2ccc(Cl)cc2C(c2ccc3[nH]c(=O)[nH]c3c2)=NC1Cc1ccccc1Cl (stereo not drawn) [Compound 41, (Z)-7-chloro-3-(2-chlorobenzyl)-5-(2-oxo-2,3-dihydro-1H-benzo[d]imidazol-5-yl)-1H-benzo[e][1,4]diazepin-2(3H)-one] | > 5.30 | > 5.30 | –
